The values that follow come from US5387600A, “Treating arteriosclerosis using benzimidazole compositions” (priority 1992, dated 1995).

For series [1], the system named is mouse abdominal cavity macrophage. Nature of the series: In vitro test for suppressing effect of macrophage-foaming reaction. The series is classed as cell-based. Particulars: compared with control; for activity at 5 µM: Mus musculus, Macrophage, 16 h. How it is done: (1) In vitro test for suppressing effect of macrophage-foaming reaction using mouse abdominal cavity macrophage
A 15-week old ICR female mouse (Japan SLC) was amputated at its neck and exsanguinated. Then, Hanks buffer (Nissui Pharmaceutical Co., Ltd.) was injected intraperitoneally. After massaging the abdominal part, the buffer was recovered rapidly and centrifuged at 1,000 rpm for 5 minutes to collect the abdominal cavity macrophage. Then, the collected abdominal cavity macrophage was suspended in GIT medium (Wako Pure Chemical Industry) and inoculated on a 24-well microplate. After culturing the macrophage for 2 hours at 37° C. in 5% CO2, the medium was changed into Dulbecco modified Eagle's MEM medium (Nissui Pharmaceutical Co., Ltd.). After further culturing the macrophage for 16 hours at 37° C. in 5% CO2, the following substances were added in order:
1 Test compounds: solutions in DMSO (Wako Pure Chemical Industry) 1 ml of the solutions were prepared, optionally diluted and the diluted solutions were added to individual wells (500 μl) in the amount of 5μl.
PC: phosphatidylcholine (Funakoshi)
PS: phosphatidylserine (Funakoshi)
DCP: dicetylphosphate (Funakoshi)
CHOL.: cholesterol (Sigma)
3 ^3 H-Oleic acid (Amersham Japan)
Then, after still further culturing the macrophage for 16 hours at 37° C. in 5% CO2, the lipid fraction was extracted with chloroform and methanol. The extracted lipid fraction was subjected to TLC (hexane:ether:acetic acid=70:30:1), the separated bands of CE (cholesterylester) and TG (triglyceride) were borne off from the TLC plate and then the radioactivities thereof were measured using a liquid scintillation counter (PACKARD BH-22). Yields of cholesteryl ester were calculated by comparing with a control.

Series [2] relates to rabbit fed feed having high cholesterol content. The series is described as follows: Arteriosclerosis focus formation-regressing effect in rabbit fed feed having high cholesterol content. The series is classed as in vivo. Particulars: 100 mg/kg/day in feed for 20 successive days. The source says:
(4) Arteriosclerosis focus formation-regressing effect in rabbit fed feed having high cholesterol content
New Zealand White female rabbits having body weight of about 2 kg were fed feed having high cholesterol content (100 g/day/rabbit: ORC-4 manufactured by Oriental Yeast, containing 0.5% of cholesterol and 0.5% of olive oil) for 7 days to produce hypercholesterolemia.
Subsequently, one group consisting of 3 rabbits (treatment group) was fed the same feed in the same amount, except that the feed further contained test compound (53) in the amount of 100 mg/kg/day/rabbit, for 20 successive days. On the other hand, as a control, another group consisting of 3 rabbits was fed the same feed in the same amount without any test compound.
After 20 weeks from the administration of the test compound, the aortas and arch part thereof were removed from each rabbit and the blood vessels were opened. Comparing the treatment group with the control group, it was observed that the arteriosclerosis focus formation was suppressed effectively in the treatment group.

The next series relates to rabbit fed normal feed. The series is described as follows: Blood lipid lowering effect in rabbit fed normal feed. The series is classed as in vivo. The settings on record: New Zealand White female rabbits, 100 mg/kg/day in feed for 7 successive days. How it is done: (3) Blood lipid lowering effect in rabbit fed normal feed (i) New Zealand White female rabbits having body weight of about 2 kg were fed normal feed (100 g/day/rabbit: ORC-4 manufactured by Oriental Yeast) for 7 days.
Subsequently, one group consisting of 3 rabbits (treatment group) was fed the normal feed in the same amount, except that the feed further contained test compound (8) in the amount of 100 mg/kg/day/rabbit, for 7 successive days. As a control, another group consisting of 3 rabbits was fed the normal feed in the same amount without any test compound.
A Small amount of blood was drawn from the parotic vein of every rabbit once a week and was measured for amount of blood total cholesterol using IATROLIPO TC manufactured by Iatron Laboratories Inc.
Thus, it is clear that test compound (8) has an excellent blood cholesterol lowering effect not only on rabbits fed high-cholesterol feed but also on rabbits fed normal feed. (ii) New Zealand White female rabbits having body weight of about 2 kg were fed normal feed (100 g/day/rabbit: ORC-4 manufactured by Oriental Yeast) for 7 days. […]
(§1) A small amount of blood was drawn from the parotic vein of every rabbit once a week and was measured for amount of blood total cholesterol using IATROLIPO TC manufactured by Iatron Laboratories Inc.

A short description of the next series: Acute toxicity test. Particulars: mouse, in vivo; oral, suspension in 0.5% Tween 80, 8-week old ddy mice. The source says:
Compounds (8) and (53) each was suspended in 0.5% Tween 80 solution. Six 8-week old ddy mice were orally administered the suspensions respectively and were observed on acute toxicity.

Series [3] deals with rabbit fed high-cholesterol feed. The series is described as follows: Blood lipid lowering effect in rabbit fed high-cholesterol feed. The series is classed as in vivo. Particulars: New Zealand White female rabbits, 100 mg/kg/day in feed for 7 successive days.
Text: (2) Blood lipid lowering effect in rabbit fed high-cholesterol feed (i) New Zealand White female rabbits having body weight of about 2 kg were fed feed having high cholesterol content (100 g/day/rabbit: ORC-4 manufactured by Oriental Yeast, containing 0.5% of cholesterol and 0.5% of olive oil) for 7 days to produce hypercholesterolemia.
Subsequently, one group consisting of 3 rabbits (treatment group) was fed the same feed in the same amount, except that the feed further contained test compound (8) in the amount of 100 mg/kg/day/rabbit, for 7 successive days. On the other hand, as a control, another group consisting of 3 rabbits was fed the same feed in the same amount without any test compound.
as §1
Thus, it is clear that test compound (8) has an excellent lowering effect of the blood cholesterol. (ii) New Zealand White female rabbits having body weight of about 2 kg were fed feed having high cholesterol content (100 g/day/rabbit: ORC-4 manufactured by Oriental Yeast, containing 0.5% of cholesterol and 0.5% of olive oil) for 7 days to produce hypercholesterolemia. […]

[4] abbreviates: cholesteryl ester from 3H-oleic acid, read-out: Yield of CE (%).
[5] abbreviates: triglyceride from 3H-oleic acid, read-out: Yield of TG (%).

Read-outs that look alike come from different tables or passages of the source.

The term LD50 denotes the dose at which mortality reaches 50%. Higher therefore signals a less toxic substance.

As to `CCCC(c1cc(C(C)(C)C)cc(C(C)(C)C)c1O)c1cc(C(C)(C)C)cc(C(C)(C)C)c1O` [(56)], the activity at 5 µM in series [1] (setting [4]) was found to be 51%; in series [1] (setting [5]), 102%.

Take `O=C(CSc1nc2ccccc2[nH]1)c1ccccc1O` [(43)]: the activity at 5 µM in series [1] (setting [4]) turned out to be 45%; in series [1] (setting [5]), 98%.

As for `CCCCCCCCCCCC(=O)Nc1ccc2[nH]cnc2c1` [(47)], the activity at 5 µM worked out at 55% in series [1] (setting [4]) and 98% in series [1] (setting [5]).

As to `CCOC(=O)Oc1c(C)cc(C)cc1C(c1cc(C)cc(C)c1O)C(C)C` (stereo not drawn) [(73)], the activity at 5 µM in series [1] (setting [4]) is 48%; in series [1] (setting [5]), 90%.

On to `Cc1cc(C(CCc2ccccc2)c2cc(C)cc(C(C)(C)C)c2O)c(O)c(C(C)(C)C)c1` [(74)], for which the activity at 5 µM came to 65% in series [1] (setting [4]) and 108% in series [1] (setting [5]).

On to `CCCCCCCCCC(=O)Nc1ccc2[nH]c(S)nc2c1` [(10)], for which the results for the activity at 5 µM in series [1] (setting [4]) and in series [1] (setting [5]) were 69% and 129%, respectively.

Take `Cc1nc2ccc([N+](=O)[O-])cc2[nH]1` [(5), 2-metyl-5-nitrobenzimidazole]: the activity at 5 µM in series [1] (setting [4]) amounted to 67%; in series [1] (setting [5]), 89%.

Consider `COC(=O)CCCC(C)(C)c1cc(C)cc(Cc2cc(C)cc(C(C)(C)CCCC(=O)OC)c2O)c1O` [(67)], for which the activity at 5 µM came to 42% in series [1] (setting [4]) and 92% in series [1] (setting [5]).

Regarding `CCCCCCCCS(=O)(=O)Nc1ccc2[nH]c(S)nc2c1` [(21)], the activity at 5 µM in series [1] (setting [4]) turned out to be 64%; in series [1] (setting [5]), 93%.

Regarding `CCC(C)(C)c1cc(C(C)c2cc(C(C)(C)CC)cc(C(C)(C)CC)c2O)c(O)c(C(C)(C)CC)c1` [(63), 2,2'-ethylidenebis(4,6-di-tert-pentylphenol)], the activity at 5 µM in series [1] (setting [4]) was determined as 42%; in series [1] (setting [5]), 96%.

Consider `c1ccc(CSc2nc3ccccc3[nH]2)cc1` [(7), 2-benzylthiobenzimidazole], for which the activity at 5 µM in series [1] (setting [4]) is 61%; in series [1] (setting [5]), 91%.

On to `O=[N+]([O-])c1ccc2nc(CCCCCCCCc3nc4ccc([N+](=O)[O-])cc4[nH]3)[nH]c2c1` [(6), 1,8-bis(5-nitrobenzimidazol-2-yl) octane], for which the activity at 5 µM was 8% in series [1] (setting [4]) and 61% in series [1] (setting [5]).

`Cc1cc(C)c(O)c(C(C)(C)c2cc(C)cc(C)c2O)c1` [(62)]: the activity at 5 µM in series [1] (setting [4]) came to 61%; in series [1] (setting [5]), 98%.

In the case of `CCCCCCCCOc1ccc2[nH]c(S)nc2c1` [(27)], the activity at 5 µM turned out to be 51% in series [1] (setting [4]) and 78% in series [1] (setting [5]).

Turning to `CCCCCCCCCCCCNS(=O)(=O)c1ccc2[nH]c(S)nc2c1` [(12)], the activity at 5 µM in series [1] (setting [4]) amounted to 52%; in series [1] (setting [5]) it was 102%.

As for `Cc1cc(C(c2ccccc2)c2cc(C)cc(C(C)(C)C)c2O)c(O)c(C(C)(C)C)c1` [(60)], the activity at 5 µM came to 48% in series [1] (setting [4]) and 96% in series [1] (setting [5]).

`CN1C(=O)C(Cl)C(Sc2nc3ccccc3[nH]2)N(C)C1=O` (stereo not drawn) [(42)]: the “Yield of CE (%)” value in series [1] (5 μM, cholesteryl ester from 3H-oleic acid, 960 min) stood at 61%. In addition, the “Yield of TG (%)” value in series [1] (5 μM, triglyceride from 3H-oleic acid, 960 min) was 96%.

For `CCCCCCCCCCCCOC(=O)c1ccc2[nH]c(S)nc2c1` [(34)], the activity at 5 µM in series [1] (setting [4]) was determined as 50%; in series [1] (setting [5]), 108%.

For `CCCCCCCCCCCCCCCCSc1nc2ccccc2[nH]1` [(20)], the values for the activity at 5 µM in series [1] (setting [4]) and in series [1] (setting [5]) were 49% and 62%, respectively.

Regarding `Cc1cc(C)c(O)c(C(c2cc(C)cc(C)c2O)C(C)C)c1` [(53), 2,2'-isobutylidenebis(4,6-dimethyphenol)], the “cholesterol deposition to the eye ball” value in series [2] (after 20 weeks) was “suppressing”. Further, in series [2] (after 20 weeks), the fatty liver formation entry was “suppressing”. Further, the arteriosclerosis focus formation entry in series [2] (aortas examined after 20 weeks) is “suppresses”. The “fall of amount of blood total cholesterol in comparison with the control group” value in the series on rabbit fed normal feed is reported as 20%; in series [3] it was 40%. For the same compound, the LD50 in the series “Acute toxicity test” was ≥ 1000 mg/kg. Also, the activity at 5 µM turned out to be 56% in series [1] (setting [4]) and 92% in series [1] (setting [5]).

In the case of `CCCCCCCCCCCC(=O)Nc1ccc2[nH]c(SC)nc2c1` [(28)], the activity at 5 µM stood at 53% in series [1] (setting [4]) and 164% in series [1] (setting [5]).

In the case of `Cc1cc(Cc2cc(C)cc(C(C)(C)C)c2O)c(O)c(C(C)(C)C)c1` [(52)], the activity at 5 µM in series [1] (setting [4]) was determined as 38%; in series [1] (setting [5]), 101%.

For `CCCCCCCC(c1cc(C)cc(C2(C)CCCCC2)c1O)c1cc(C)cc(C2(C)CCCCC2)c1O` [(61)], the activity at 5 µM in series [1] (setting [4]) came to 52%; in series [1] (setting [5]), 103%.

On to `CC(=O)Oc1c(Cc2cc(C)cc(C(C)(C)C)c2O)cc(C)cc1C(C)(C)C` [(58)], for which the activity at 5 µM in series [1] (setting [4]) is 45%; in series [1] (setting [5]) it was 98%.

Consider `Cc1cc(C)c(O)c(C(CC(C)CC(C)(C)C)c2cc(C)cc(C)c2O)c1` (stereo not drawn) [(54)], for which the results for the activity at 5 µM in series [1] (setting [4]) and in series [1] (setting [5]) were 25% and 95%, respectively.

Take `CC(CC(=O)Nc1ccc2[nH]c(S)nc2c1)CC(C)(C)C` (stereo not drawn) [(23)]: the activity at 5 µM turned out to be 56% in series [1] (setting [4]) and 119% in series [1] (setting [5]).

For `Cc1cc(C)c(O)c(Cc2cc(C(C)(C)C)cc(C(C)(C)C)c2O)c1` [(66)], the values for the activity at 5 µM in series [1] (setting [4]) and in series [1] (setting [5]) were 54% and 108%, respectively.

Regarding `CCC(C)c1cc(C(C)CC)c(O)c(C(c2cc(C(C)CC)cc(C(C)CC)c2O)C(C)C)c1` (stereo not drawn) [(65)], the activity at 5 µM in series [1] (setting [4]) was 38%; in series [1] (setting [5]) it was 101%.

Regarding `CCCCCCCCCCCCNC(=O)c1ccc2[nH]c(S)nc2c1` [(30)], the figures for the activity at 5 µM in series [1] (setting [4]) and in series [1] (setting [5]) were 51% and 91%, respectively.

As for `CCCCCCCCCCCC(=O)Nc1ccc2nc(S)[nH]c2c1` [(8), 5-dodecanoylamino-2-mercaptobenzimidazole], the “fall of amount of blood total cholesterol in comparison with the control group” value with rabbit fed normal feed is given as 20%; in series [3], 25%. For the same compound, in “Acute toxicity test”, the LD50 was ≥ 1000 mg/kg. In addition, the activity at 5 µM in series [1] (setting [4]) was determined as 42%; in series [1] (setting [5]), 106%.
